Data published in patent EP1739169B1, “Clinical diagnostic reagent comprising glucose 6-phosphate dehydrogenase (G6PDH), method for stabilizing G6PDH, and use of a stabilizer for G6PDH” (SYSMEX CORPORATION, priority 2005, dated 2007).

Legend:
[1] = system: G6PDH; test: Residual activity of G6PDH in CK activity measurement reagent after heat loading at 37°C (NADPH formation, absorbance at 340 nm); format: biochemical; details: heat loading at 37°C for 5 days; for G6PDH residual activity: relative to reagent without heat loading
Procedure: (§1) Aminoguanidine was added to the above composition to prepare three kinds of reagents different in the concentration of aminoguanidine. The concentrations of aminoguanidine in these reagents were 10 mM, 20 mM and 40 mM respectively. After these reagents were subjected to heat loading at 37°C for 5 days, the residual activity of G6PDH was measured and the residual amount of SH group in NAC was quantified.
The activity of G6PDH was measured in the following manner. First, a solution wherein 20 mM magnesium chloride, 0.6 mM NADP and 0.5 mM G6P were dissolved in a solution containing 0.1 M glycylglycine (pH 8.5) was prepared. When 300 µl of this solution was mixed with 1 µl of the first reagent, NADPH is formed by the activity of G6DPH. When NADPH is formed, the absorbance at a wavelength of 340 nm is increased, and thus this increase is measured to determine the activity of G6PDH.
(§2) In Table 1, the residual activity of G6PDH and the residual amount of SH group of NAC are expressed in percentage. These values are those relative to the activity of G6PDH and the amount of SH group of NAC in each reagent which without subjection to heat loading, was measured by the method described in Example 1. Table 1 […]

[2] = Residual amount of SH group of NAC in the reagent after heat loading at 37°C (quantification with DTNB, absorbance at 412 nm); format: physicochemical; details: heat loading at 37°C for 5 days; for SH group residual amount: relative to reagent without heat loading
Procedure: as §1
The quantification of SH group was carried out by using DTNB (5,5'-dithiobis(2-nitrobenzoic acid)). When DTNB is added to the reagent where NAC is present, disulfide linkages corresponding to the amount of SH groups in the NAC are cleaved to generate 5-mercapto-2-nitrobenzoic acid. When 5-mercapto-2-nitrobenzoic acid is generated, the absorbance at a wavelength of 412 nm is increased, and thus this increase can be measured to determine the amount of SH groups in the reagent.
as §2

SMILES	activity of G6PDH after heat loading (in words) [1]	G6PDH residual activity ([1]; stabilizer 10 mM in reagent) [%]	G6PDH residual activity ([1]; stabilizer 20 mM in reagent) [%]	G6PDH residual activity ([1]; stabilizer 40 mM in reagent) [%]	amount of SH group of NAC after heat loading (in words) [2]	SH group residual amount ([2]; stabilizer 10 mM in reagent) [%]	SH group residual amount ([2]; stabilizer 20 mM in reagent) [%]	SH group residual amount ([2]; stabilizer 40 mM in reagent) [%]
N=C(N)NN [aminoguanidine]	the activity of G6PDH could be maintained	88.2	92.6	94.8	without reducing the amount of SH group	92.2	95.4	94.1
CC(=O)NN [acetohydrazine, reference compound]	the activity of G6PDH was lost	–	84.3	87.8	NAC was deteriorated to reduce the amount of SH group	–	78.4	77.7
